Data published in publication PMC10167746, “Crystal structure of MbnF: an NADPH-dependent flavin monooxygenase from Methylocystis strain SB2” (Acta Crystallographica. Section F, Structural Biology …, 2023).
Blank lines part the entries; values can stand above or below the molecule they belong to.

Key:
[1] = target: T1, MbnF (MbnF-His) (Methylocystis sp. SB2, UniProt A0ACD6BAX2); assay: X-ray crystal structure, […] A; format: binding; settings: co-purified from E. coli, no FAD added; noncovalent; 'in' conformation, all three monomers of the asymmetric unit; crystals pH 6.5, 200 mM NaBr
T1 construct: gene CTY30_04200; full-length, C-terminal His6 tag kept (pET-41a, E. coli BL21(DE3)); monomer in solution (SEC), dimer in crystal

[2] = target: T2, MbnF from Methylocystis sp. strain SB2, C-terminally His6-tagged (Methylocystis sp. strain SB2); assay: native MS; ESI-MS after a SEC column (ACQUITY UPLC Protein BEH SEC) under neutral pH, isocratic 50 mM ammonium acetate pH 6.6; mixture of 1 mg/ml MbnA, 500 µM MbnF, 250 mM NaCl, 50 mM HEPES pH 7.4; settings: both partners purified
T2 construct: MbnF, Methylocystis sp. strain SB2; Computed mass 59.17 kDa as printed; also called MbnF-His; FAD-dependent oxidoreductase; source: E. coli BL21(DE3), pET-41, purified (HisTrap, Mono Q); not shown: His6, C-terminal, kept
T2 chain: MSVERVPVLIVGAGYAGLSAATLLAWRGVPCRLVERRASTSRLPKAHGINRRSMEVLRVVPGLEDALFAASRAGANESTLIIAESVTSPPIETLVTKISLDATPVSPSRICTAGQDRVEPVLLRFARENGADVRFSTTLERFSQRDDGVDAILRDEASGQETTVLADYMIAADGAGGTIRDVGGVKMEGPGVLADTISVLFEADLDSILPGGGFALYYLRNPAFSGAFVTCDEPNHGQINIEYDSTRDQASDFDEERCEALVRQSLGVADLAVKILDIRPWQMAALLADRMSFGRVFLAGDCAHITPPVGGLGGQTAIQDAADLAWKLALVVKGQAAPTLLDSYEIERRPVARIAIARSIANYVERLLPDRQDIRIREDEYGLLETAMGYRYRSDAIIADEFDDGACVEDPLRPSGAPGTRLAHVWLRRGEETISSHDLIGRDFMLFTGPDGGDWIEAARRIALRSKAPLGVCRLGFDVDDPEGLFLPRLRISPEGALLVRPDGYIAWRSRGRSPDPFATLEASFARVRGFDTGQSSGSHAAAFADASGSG

Molecule: Cc1cc2nc3c(=O)[nH]c(=O)nc-3n(C[C@H](O)[C@H](O)[C@H](O)COP(=O)(O)OP(=O)(O)OC[C@H]3O[C@@H](n4cnc5c(N)ncnc54)[C@H](O)[C@@H]3O)c2cc1C [FAD]
X-ray crystal structure, 2.61 A [1]: All three monomers of the asymmetric unit bound FAD in the same general conformation

binding result [2]: binds
B1: MbnA peptide (methanobactin MB-SB2 precursor peptide) (peptide)
peptide: IRIAKRITLNVIGRASARCASTCAATNG
notes: MbnA, precursor peptide of methanobactin MB-SB2, Methylocystis sp. strain SB2; the natural precursor may have further residues at its N-terminus; also called MB-SB2 peptide precursor; source: synthetic peptide, bought: AnaSpec (~90% pure)
